Patent US10072011B2, “Substituted bridged urea analogs as sirtuin modulators” (GlaxoSmithKline Intellectual Property (No.2) Limited, priority 2014, dated 2018)

Biological target: T1, SIRT1 (Homo sapiens, UniProt Q96EB6)
T1 sequence (Q96EB6 1-747): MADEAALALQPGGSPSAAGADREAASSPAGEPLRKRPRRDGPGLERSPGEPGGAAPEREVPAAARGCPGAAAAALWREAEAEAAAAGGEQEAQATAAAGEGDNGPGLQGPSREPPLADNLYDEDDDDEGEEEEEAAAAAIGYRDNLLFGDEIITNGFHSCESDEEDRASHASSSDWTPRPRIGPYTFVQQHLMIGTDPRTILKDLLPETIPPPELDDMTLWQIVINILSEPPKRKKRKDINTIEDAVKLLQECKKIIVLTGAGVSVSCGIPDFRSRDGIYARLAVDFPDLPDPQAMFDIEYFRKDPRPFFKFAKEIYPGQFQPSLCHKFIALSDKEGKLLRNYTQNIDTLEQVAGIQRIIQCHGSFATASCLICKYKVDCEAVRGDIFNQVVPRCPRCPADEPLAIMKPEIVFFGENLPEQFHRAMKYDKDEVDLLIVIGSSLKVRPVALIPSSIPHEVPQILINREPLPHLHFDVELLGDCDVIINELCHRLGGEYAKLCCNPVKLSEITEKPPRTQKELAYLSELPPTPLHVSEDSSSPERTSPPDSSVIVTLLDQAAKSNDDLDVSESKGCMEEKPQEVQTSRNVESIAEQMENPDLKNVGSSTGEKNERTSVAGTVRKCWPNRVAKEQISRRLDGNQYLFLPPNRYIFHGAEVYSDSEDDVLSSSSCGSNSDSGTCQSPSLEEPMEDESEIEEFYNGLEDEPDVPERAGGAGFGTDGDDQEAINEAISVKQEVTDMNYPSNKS
Assay: Trp mass spectrometry assay of SIRT1 activation (Ac-R-H-K-K(Ac)-W-NH2 peptide)
Type: biochemical
Details: Trp peptide 0.5 μM, 120 μM βNAD+, 10 nM SIRT1, 25 min at 25° C.; for Emax: 25 min, relative to control (100%), read-out: TRP MAX RESP (percent maximum fold activation)
Method: The Trp mass spectrometry assay was conducted as follows. […] The SIRT1 protein was obtained by cloning the SirT1 gene into a T7-promoter containing vector, which was then expressed in BL21(DE3) bacterial cells and purified as described in further detail below. Test compound was added at varying concentrations to this reaction mixture and the resulting reactions were monitored. After the 25 minute incubation with SIRT1, 10 μL of 10% formic acid was added to stop the reaction. The resulting reactions were sealed and frozen for later mass spec analysis. The relative SIRT1 activity was then determined by measuring the amount of O-acetyl-ADP-ribose (OAADPR) formed (or, alternatively, the amount of deacetylated Trp peptide generated) by the NAD-dependent sirtuin deacetylation reaction in the presence of varying concentrations of the test compound versus control reactions lacking the test compound. The degree to which the test agent activated deacetylation by SIRT1 was expressed as EC1.5 (i.e., the concentration of compound required to increase SIRT1 activity by 50% over the control lacking test compound), and Percent Maximum Activation (i.e., the maximum activity relative to control (100%) obtained for the test compound).
This time point was the same as that used for test compounds and, within the linear range, the endpoint represents a change in velocity.
For the above assay, SIRT1 protein was expressed and purified as follows. The SirT1 gene was cloned into a T7-promoter containing vector and transformed into BL21(DE3). The protein was expressed by induction with 1 mM IPTG as an N-terminal His-tag fusion protein at 18° C. overnight and harvested at 30,000×g. Cells were lysed with lysozyme in lysis buffer (50 mM Tris-HCl, 2 mM Tris[2-carboxyethyl]phosphine (TCEP), 10 μM ZnCl2, 200 mM NaCl) and further treated with sonication for 10 min for complete lysis. The protein was purified over a Ni-NTA column (Amersham) and fractions containing pure protein were pooled, concentrated and run over a sizing column (Sephadex S200 26/60 global). The peak containing soluble protein was collected and run on an Ion-exchange column (MonoQ). Gradient elution (200 mM-500 mM NaCl) yielded pure protein. This protein was concentrated and dialyzed against dialysis buffer (20 mM Tris-HCl, 2 mM TCEP) overnight. The protein was aliquoted and frozen at −80° C. until further use.
“NT” means not tested; “ND” means not determinable.

| Structure (SMILES) | Emax | TRP Activity (EC1.5, concentration of test compound that results in 150% activation of SIRT1) |
| --- | --- | --- |
| CC[C@@H](CO)NC(=O)c1ccc2c(n1)N(C(=O)Nc1ccccn1)[C@H]1CCN2C1 [Example 30, (4S)—N7-((S)-1-hydroxybutan-2-yl)-N5-(pyridin-2-yl)-3,4-dihydro-1,4-methanopyrido[2,3-b][1,4]diazepine-5,7(2H)-dicarboxamide] | > 150% | A (EC1.5<1 μM) |
| O=C(N[C@H](C1CC1)C(F)(F)F)c1ccc2c(n1)N(C(=O)Nc1ccccn1)[C@H]1CCN2C1 [Example 46, (4S)—N7-((R)-1-cyclopropyl-2,2,2-trifluoroethyl)-N5-(pyridin-2-yl)-3,4-dihydro-1,4-methanopyrido[2,3-b][1,4]diazepine-5,7(2H)-dicarboxamide] | > 150% | A (EC1.5<1 μM) |
| C[C@@H](NC(=O)c1ccc2c(n1)N(C(=O)Nc1cc(C(N)=O)ccn1)[C@H]1CCN2C1)C(F)(F)F [Example 137, (4S)—N5-(4-carbamoylpyridin-2-yl)-N7-((R)-1,1,1-trifluoropropan-2-yl)-3,4-dihydro-1,4-methanopyrido[2,3-b][1,4]diazepine-5,7(2H)-dicarboxamide] | > 150% | A (EC1.5<1 μM) |
| O=C(NC1CCOCC1)c1ccc2c(n1)N(C(=O)Nc1ccccn1)[C@H]1CCN2C1 [Example 4, (4S)—N-5-(pyridin-2-yl)-N-7-(tetrahydro-2H-pyran-4-yl)-3,4-dihydro-1,4-methanopyrido [2,3-b] [1, 4] diazepine-5, 7(2H)-dicarboxamide] | > 150% | B (EC1.5 1-25 μM) |
| COCC(NC(=O)c1ccc2c(n1)N(C(=O)Nc1ccccn1)[C@H]1CCN2C1)C(F)(F)F (stereo partly drawn) [Example 9, (4S)—N-5-(pyridin-2-yl)-N-7-(1,1,1-trifluoro-3-methoxypropan-2-yl)-3,4-dihydro-1,4-methanopyrido[2,3-b][1,4]diazepine-5,7(2H)-dicarboxamide] | > 150% | A (EC1.5<1 μM) |
| O=C(NC1CCCOC1)c1ccc2c(n1)N(C(=O)Nc1ccccn1)[C@H]1CCN2C1 (stereo partly drawn) [Example 5, (4S)—N-5-(pyridin-2-yl)-N-7-(tetrahydro-2H-pyran-3-yl)-3,4-dihydro-1,4-methanopyrido [2,3-b] [1, 4] diazepine-5, 7(2H)-dicarboxamide] | > 150% | B (EC1.5 1-25 μM) |
| C[C@@H](NC(=O)c1ccc2c(n1)N(C(=O)Nc1cc(C(=O)N[C@H]3CCOC3)ccn1)[C@H]1CCN2C1)C(F)(F)F [Example 264, (4S)—N5-(4-(((S)-tetrahydrofuran-3-yl)carbamoyl)pyridin-2-yl)-N7-((R)-1,1,1-trifluoropropan-2-yl)-3,4-dihydro-1,4-methanopyrido[2,3-b][1,4]diazepine-5,7(2H)-dicarboxamide] | < 150% | C (EC1.5>25 μM) |
| O=C(NCC(F)(F)F)c1ccc2c(n1)N(C(=O)Nc1cc(-c3cnco3)ccn1)[C@H]1CCN2C1 [Example 83, (4S)—N5-(4-(oxazol-5-yl)pyridin-2-yl)-N7-(2,2,2-trifluoroethyl)-3,4-dihydro-1,4-methanopyrido[2,3-b][1,4]diazepine-5,7(2H)-dicarboxamide] | > 150% | A (EC1.5<1 μM) |
| CC(=O)Nc1ccnc(NC(=O)N2c3nc(C(=O)NCC(F)(F)F)ccc3N3CC[C@H]2C3)c1 [Example 167, (4S)—N5-(4-acetamidopyridin-2-yl)-N7-(2,2,2-trifluoroethyl)-3,4-dihydro-1,4-methanopyrido[2,3-b][1,4]diazepine-5,7(2H)-dicarboxamide] | > 150% | A (EC1.5<1 μM) |
| O=C(NCc1cccc(F)c1)c1ccc2c(n1)N(C(=O)Nc1cc(OC[C@H](O)CO)ccn1)[C@H]1CCN2C1 [Example 187, (4S)—N5-(4-((R)-2,3-dihydroxypropoxy)pyridin-2-yl)-N7-(3-fluorobenzyl)-3,4-dihydro-1,4-methanopyrido[2,3-b][1,4]diazepine-5,7(2H)-dicarboxamide] | > 150% | A (EC1.5<1 μM) |

The remaining lines, values ahead:

| Emax | TRP Activity (EC1.5, concentration of test compound that results in 150% activation of SIRT1) | Structure (SMILES) |
| --- | --- | --- |
| > 150% | A (EC1.5<1 μM) | O=C(NC1CC1(F)F)c1ccc2c(n1)N(C(=O)Nc1ccccn1)[C@H]1CCN2C1 (single isomer, unassigned) [Example 43] |
| > 150% | A (EC1.5<1 μM) | C#C[C@@H](C)NC(=O)c1ccc2c(n1)N(C(=O)Nc1ccccn1)[C@H]1CCN2C1 [Example 105, (4S)—N7-((R)-but-3-yn-2-yl)-N5-(pyridin-2-yl)-3,4-dihydro-1,4-methanopyrido[2,3-b][1,4]diazepine-5,7(2H)-dicarboxamide] |
| > 150% | A (EC1.5<1 μM) | NC(=O)c1ccc(NC(=O)N2c3nc(C(=O)NCC(F)(F)F)ccc3N3CC[C@H]2C3)nc1 [Example 143, (4S)—N5-(5-carbamoylpyridin-2-yl)-N7-(2,2,2-trifluoroethyl)-3,4-dihydro-1,4-methanopyrido[2,3-b][1,4]diazepine-5,7(2H)-dicarboxamide] |
| > 150% | A (EC1.5<1 μM) | O=C(N[C@H](CO)C(F)(F)F)c1ccc2c(n1)N(C(=O)Nc1cc(OC[C@H](O)CO)ccn1)[C@H]1CCN2C1 (single isomer, unassigned) [Example 92] |
| > 150% | A (EC1.5<1 μM) | Cc1ccc2c(NC(=O)N3c4nc(C(=O)N[C@H](CO)C(F)(F)F)ccc4N4CC[C@H]3C4)n[nH]c2n1 [Example 139, (4S)—N5-(6-methyl-1H-pyrazolo[3,4-b]pyridin-3-yl)-N7-((R)-1,1,1-trifluoro-3-hydroxypropan-2-yl)-3,4-dihydro-1,4-methanopyrido[2,3-b][1,4]diazepine-5,7(2H)-dicarboxamide] |
| > 150% | A (EC1.5<1 μM) | Cc1nc(NC(=O)N2c3nc(C(=O)N[C@H](C)C(F)(F)F)ccc3N3CC[C@H]2C3)co1 [Example 25, (4S)—N5-(2-methyloxazol-4-yl)-N7-((R)-1,1,1-trifluoropropan-2-yl)-3,4-dihydro-1,4-methanopyrido[2,3-b][1,4]diazepine-5,7(2H)-dicarboxamide] |
| > 150% | A (EC1.5<1 μM) | O=C(NC[C@H](O)C(F)(F)F)c1ccc2c(n1)N(C(=O)Nc1ccc(F)cn1)[C@H]1CCN2C1 [Example 81, (4S)—N5-(5-fluoropyridin-2-yl)-N7-((S)-3,3,3-trifluoro-2-hydroxypropyl)-3,4-dihydro-1,4-methanopyrido[2,3-b][1,4]diazepine-5,7(2H)-dicarboxamide] |
| > 150% | B (EC1.5 1-25 μM) | CC(C)(CCO)NC(=O)c1ccc2c(n1)N(C(=O)Nc1ccccn1)[C@H]1CCN2C1 [Example 209, (4S)—N7-(4-hydroxy-2-methylbutan-2-yl)-N5-(pyridin-2-yl)-3,4-dihydro-1,4-methanopyrido[2,3-b][1, 4] diazepine-5, 7(2H)-dicarboxamide] |
